Tests used:
Format in all cases: in vivo
[1] = test system: Aspergillus flavus; test: Aspergillus flavus pulmonary infection model in compromised mice, oral treatment; settings: for %SURVIVAL / %ANIMALS NEG: 18 days post infection; for %SURVIVAL: compromised CF-1 mice; for %ANIMALS NEG: negative = <10 colonies
Text: The in vivo oral antifungal activity of the compounds of Example 23-26 were compared to those of itraconazole, fluconazole and saperconazole in an Aspergillus pulmonary infection model in mice. The procedure of David Loebenberg et al. entitled "Sch 42427, The Active Enantiomer of Antifungal agent Sch 39304: In Vitro and In Vivo Activity" Antimicrobial Agents and Chemotherapy (1992), 36 498-501 was used. The Aspergillus flavus pulmonary model was run in the following manner Male, CF-1 mice weighing 20 grams were compromised with cortisone acetate (100 mg/kg), administered subcutaneously, once daily for 3 days. In addition, to prevent bacterial disease, tetracycline HCL (300 mg/1) was added to the drinking water and given ad libitum. On day 2 of compromising, mice were infected in an inhalation chamber, first described by Piggot and Emmons in 1960 and modified by us. The chamber is a 1 liter pyrex, thick-walled flask with 8 tubular side-arms that extend into the flask. Each side-arm is a pyrex tube of 14 cm length, constricted to a 1 cm opening inside the flask. The bottom of the flask was covered with a malt extract agar medium on which a sporulating culture of A. flavus ATCC 24133 was grown for 13 days at room temperature. The top of the flask was closed with a #10 stopper through which passed a glass tube attached by rubber tubing to a 60 mL syringe. Mice were placed in each of the side arms and pushed to the bottoms so that their nares extended beyond the open end of the tube and over the agar. Cotton plugs were then inserted behind the mice to hold them in place. By pumping the 60 mL syringe twice, air was forced over the culture and produced a cloud of spores. Mice were exposed to the spore cloud for one minute. Within 15-30 minutes after exposure, a number of mice were sacrificed and lung tissue samples homogenized for culture to determine the number of inhaled conidia. Oral treatment began 24 h post-infection with doses of 5 to 250 mg of drug/kg in ethanol; vehicle (115 ml of Emulphor EL-719P, GAF, Wayne, NJ; and 5 ml of 20% w/v lactic acid per liter of water), 10:90 v/v, once daily for 4 days.
The procedure of Example 31 was used to compare the in vivo oral antifungal activity of (±)-5R/S-(cis)-4-[4-[4-[4-[[5-(2,4-difluorophenyl)-5-(1H-1,2,4-triazol-1-ylmethyl) tetrahydrofuran-3-yl]methoxy-phenyl-1-piperazinyl]phenyl]-2,4-dihydro-2[(R/S)-(1-methylpropyl)]-3H-1,2,4-triazol-3-one with (±)-2R/S-(cis)-1-[4-[[2-(2,4-difluorophenyl)-2-(1H-1,2,4-triazol-1-ylmethyl) tetrahydro-4-furanyl]methoxy]phenyl]-4-(1-methylethyl)piperazine of Example 68 of USP 5,039,676 in an Aspergillus pulmonary infection model described in Example 31. […]
The procedures of Examples 31 and 34 were used.

[2] = test system: C. albicans C-43; test: Candida systemic model in CF1 mice infected IV with C. albicans C-43, oral treatment; settings: for %SURVIVAL: day 4 post-infection; for CFUs (GM): day 4, geometric mean of the logarithms of CFU remaining in the kidneys (dead mice counted as 10^9)
Description: The compounds of Examples 23-26 and itraconazole, fluconazole, and saperconazole were tested for in vivo oral antifungal activity in a Candida systemic model using CF1 male mice , average weight 20 g, Harlan Sprague Dawley, Inc., Indianapolis, Ind. infected by IV injection into the tail vein of C. albicans C-43 (5 million CFUs). […] Oral efficacy was measured after four (4) days by percent survival and by the number of organisms remaining in the kidneys i.e., the Colony Forming Units (CFUs). The mice were sacrificed and the kidneys of individual mice were homogenized in sterile saline, diluted and spread onto Mycosel agar. Colony counts were determined after 48 hours at 37°C. For calculation of geometric means, mice that died during the experiment were considered to have 10^9 CFUs/kidneys (based on numerous previous experiments).

[3] = test system: Aspergillus flavus; test: Aspergillus flavus pulmonary infection model in compromised mice, oral treatment; settings: for %SURVIVAL / CFU-GEO MEAN OF SURVIVORS / %ANIMALS NEG: 18 days post infection; for %SURVIVAL: compromised CF-1 mice; for CFU-GEO MEAN OF SURVIVORS: geometric mean of the logarithm of CFU remaining in the lung; for %ANIMALS NEG: negative = <10 colonies
[4] = 33 mg/kg PO once a day for 4 days
[5] = 66 mg/kg PO once a day for 4 days
[6] = 100 mg/kg PO once a day for 4 days
[7] = 1 MPK PO in PEG-200, 1 a day x 4 days
[8] = 10 MPK PO in PEG-200, 1 a day x 4 days
[9] = 25 MPK PO in PEG-200, 1 a day x 4 days
[10] = 50 MPK PO in PEG-200, 1 a day x 4 days
[11] = 33 mg/kg PO [3RX/DAY] for 4 days

Row | Structure (SMILES) | %SURVIVAL [1, 4] | %ANIMALS NEG [1, 4] | %SURVIVAL [1, 5] | %ANIMALS NEG [1, 5] | %SURVIVAL [1, 6] | %ANIMALS NEG [1, 6] | %SURVIVAL [2, 7] | CFUs (GM) ([2]; 1 MPK PO in PEG-200) | %SURVIVAL [2, 8] | CFUs (GM) ([2]; 10 MPK PO in PEG-200) | %SURVIVAL [2, 9] | CFUs (GM) ([2]; 25 MPK PO in PEG-200) | %SURVIVAL [2, 10] | CFUs (GM) ([2]; 50 MPK PO in PEG-200) | %SURVIVAL [3, 11] | CFU-GEO MEAN OF SURVIVORS [3, 11] | %ANIMALS NEG [3, 11] | CFU-GEO MEAN OF SURVIVORS [3, 6] | further results
1 | CC[C@@H](C)n1ncn(-c2ccc(N3CCN(c4ccc(OC[C@@H]5CO[C@@](Cn6cncn6)(c6ccc(F)cc6F)C5)cc4)CC3)cc2)c1=O [Example 23] | 10% | 0% | 10% | 0% | 70% | 10% | 10% | 8.57 | 50% | 6.78 | 80% | 5.90 | 90% | 5.62 | 60% | 1.08 | 10% | 1.85 | 
2 | CC[C@H](C)n1ncn(-c2ccc(N3CCN(c4ccc(OC[C@@H]5CO[C@@](Cn6cncn6)(c6ccc(F)cc6F)C5)cc4)CC3)cc2)c1=O [Example 24, (-)-[(5R)-cis]-4-[4-[4-[4-[[5-(2,4-Difluorophenyl)-5-(1H-1,2,4-triazol-1-ylmethyl)tetrahydrofuran-3-yl]methoxy]phenyl]-1-piperazinyl]phenyl]-2,4-dihydro-2-[(1S)-(1-methylpropyl)]-3H-1,2,4-triazol-3-one] | 0% | 0% | 50% | 0% | 100% | 20% | 30% | 7.88 | 40% | 7.42 | 100% | 5.14 | 100% | 4.99 | 40% | 2.4 | 0% | 1.95 | oral activity in the Aspergillus pulmonary mouse model ([1]; PO, result in words (active / inactive)): exhibit oral activity; oral activity against Aspergillus flavus pulmonary infections compared with itraconazole, fluconazole and saperconazole ([1]; in vivo mouse model, PO, result in words): more active orally; oral activity in the Candida systemic model compared with itraconazole ([2]; doses of 50, 25 and 10 mpk, each dissolved in PEG-200, result in words): more active orally; CFU-GEO MEAN OF SURVIVORS [3, 5]: 2.25
3 | CCC(C)n1ncn(-c2ccc(N3CCN(c4ccc(OCC5COC(Cn6cncn6)(c6ccc(Cl)cc6Cl)O5)cc4)CC3)cc2)c1=O (stereo not shown) [Itraconazole, reference compound] |  | 0% |  | 0% | 20% | 0% |  |  | 0% | 9.00 | 0% | 9.00 | 60% | 6.68 | 10% |  | 0% |  | %SURVIVAL [3, 4]: 0%; %SURVIVAL [3, 5]: 0%; PERCENT SURVIVAL AFTER 5 DAYS (5D) ([3]; head prints 50 mg/kg (third dose column, c3), in PEG-200 daily for 4 days, CF-1 mice): 17
